According to paper PMC6628648, “Enabling microbial syringol conversion through structure-guided protein engineering” (Proceedings of the National Academy of Sciences of the …, 2019):

Assays:
GcoA variant F169L = biological target: T1, GcoA variant F169L (Amycolatopsis sp., UniProt P0DPQ7, F169L); experiment: End-point coupling assay (formaldehyde produced per NADH consumed); type: biochemical, Amycolatopsis sp. ATCC 39116; details: molar ratio formaldehyde produced per NADH consumed, 200 µM NADH, 200 µM aromatic substrate
T1 construct: GST (N, cleaved yes); made in house; host or cells: E. coli Rosetta 2 (DE3)
Protocol: The [formaldehyde] produced on reaction with GcoA-F169A and substrates was determined using a colorimetric assay with tryptophan ([28], [42]); details are provided in SI Appendix. […]
(§1) vi = Vmax[S]/(KM + [S]) (4) […]
Formaldehyde determination. A colorimetric assay using tryptophan can be used to quantify the amount of formaldehyde produced in F169 GcoA/B reactions with guaiacol, syringol, or 3MC. 0.2 µM each of F169 GcoA mutants and GcoB were dissolved in air-saturated buffer (25 mM HEPES, 50 mM NaCl) in a cuvette at pH 7.5, 25 °C. 100 µg/mL catalase was added to each reaction to capture any H2O2 formed during the uncoupled reaction. 200 μM NADH was added and the background rate recorded. 100 (guaiacol, syringol, or 3MC) or 200 (syringol) μM of substrate was then added and the reaction monitored until there was no more change, due to either substrate, NADH or O2 depletion, whichever occurred first. 200 µL of the reaction was then quenched by adding 200 µL of a 0.1% tryptophan solution in 50% ethanol and 200 µL of 90% sulfuric acid. Upon thorough mixing, 40 µL of 1% FeCl3 was added. The solution was then incubated in a heating block for 90 min at 70 °C. After cooling, the absorbance was read at 575 nm and the [formaldehyde] calculated by using ε575 nm = 4.2 mM-1 cm-1, obtained with formaldehyde as a standard (1). A negative control included everything but the substrate and was used as a baseline. […]
(§2) The reaction of each aliquot was immediately quenched with 12.5
(§3) μL saturated ammonium sulfate, 7% v/v H2SO4 (pH 2.0) prior to loading onto the HPLC column. [Substrate] disappearance was referenced to GcoA (0.2 µM) and fit to a linear line to determine specific activity.
(§4) Data analysis. The consumption of NADH and subsequent production of formaldehyde and aromatic product were measured in triplicate and the error reported as ±1 standard deviation. To determine the statistical significance between NADH consumption and the products produced, the p-value was determined for all runs containing guaiacol, syringol, and 3MC. These values were calculated using two degrees of freedom, a tail value of two, and assuming a t-statistical value for unequal variances.
(§5) Detection of H2O2 via horseradish peroxidase (HRP) and Amplex Red assay. The reaction between 100 μM guaiacol or 3MC with 0.2 μM F169A/GcoB and 100 μM NADH in air-saturated buffer (25 mM HEPES, 50 mM NaCl, pH 7.5) was monitored continuously in a quartz cuvette, using the NADH consumption assay described above. The same thing was done for syringol, but with either 100 or 200 μM NADH. When there was no longer any change in the spectra, e.g., the reaction was completed, 100 μL was removed from the cuvette and pipetted into a 96-well microplate. A 5 mL solution containing 50 μL of 10 mM Amplex Red (prepared in DMSO and stored at -20 °C) and 100 μL of 10 U/mL HRP was made up in the above buffer. 100 μL of this was added to each of the wells with each reaction sample. The plate was incubated in the dark at room temperature for 30 min, at which point the absorbance at […]
Table S1. Rate of substrate disappearance or product appearance (specific activity) for F169A.
Substrate NADH disappearance aromatic substrate disappearance KD (µM) […]
Table S2. Rates of substrate disappearance and coupling efficiencies for reactions catalyzed by the GcoA-F169 variants.
GcoA Specific activity Coupling Specific activity Coupling Specific activity (μmol Coupling variant (μmol sec-1 μmol-1 efficiency (μmol sec-1 μmol-1 efficiency sec-1 μmol-1 GcoA)a efficiency GcoA)a (%)b GcoA)a (%)b (%)b […]
aNADH consumption was monitored continuously over time via UV/vis and quantifying with ε340 = 6.22 mM-1 cm-1 at 25°C, 25 mM HEPES, 50 mM NaCl, pH 7.5 and saturating (200 µM) concentrations of all substrates (syringol, guaiacol, and 3MC). bCalculated as the molar ratio of formaldehyde produced per NADH consumed in a fixed-time assay. Assay conditions: 0.2 µM […]

GcoA-F169A = GcoA-F169A (Amycolatopsis sp., UniProt P0DPQ7, F169A); experiment: H2O2 detection via HRP and Amplex Red (uncoupling reaction); type: biochemical, Amycolatopsis sp. ATCC 39116; set-up: GST (N, cleaved yes); made in house; host or cells: E. coli Rosetta 2 (DE3); details: referenced to NADH consumed
Protocol: A colorimetric assay involving HRP and Amplex Red was used to quantify H2O2 in the reaction between GcoA-F169A GcoA/GcoB, NADH and guaiacol, syringol, or 3MC, as described in SI Appendix. […]
as §1, §2, §3, §4, §5
572 nm was recorded by a Varioskan Lux microplate reader (Thermo Scientific). The absorbance was compared to a standard curve with 0-100 μM H2O2 to quantify the amount of peroxide produced in the reactions.
Purified protein was buffer exchanged into 10 mM HEPES pH 7.5 and concentrated to an A280 value of 12, as measured on a NanoDrop 2000 spectrophotometer (Thermo Fisher). Crystals of GcoA were grown with 2.4 M sodium malonate and 200 mM substrate, dissolved in 40% DMSO where necessary. Crystals were cryocooled directly in liquid N2 without further addition of cryoprotectants. All data were collected at Diamond Light Source (Harwell, UK). For each crystal, 1800 images were taken at 0.1o increments using the default wavelength of 0.9795Å on beamline i04. Data was captured on a Pilatus 6M-F detector. […]

T1 sequence (P0DPQ7 whole entry F169L): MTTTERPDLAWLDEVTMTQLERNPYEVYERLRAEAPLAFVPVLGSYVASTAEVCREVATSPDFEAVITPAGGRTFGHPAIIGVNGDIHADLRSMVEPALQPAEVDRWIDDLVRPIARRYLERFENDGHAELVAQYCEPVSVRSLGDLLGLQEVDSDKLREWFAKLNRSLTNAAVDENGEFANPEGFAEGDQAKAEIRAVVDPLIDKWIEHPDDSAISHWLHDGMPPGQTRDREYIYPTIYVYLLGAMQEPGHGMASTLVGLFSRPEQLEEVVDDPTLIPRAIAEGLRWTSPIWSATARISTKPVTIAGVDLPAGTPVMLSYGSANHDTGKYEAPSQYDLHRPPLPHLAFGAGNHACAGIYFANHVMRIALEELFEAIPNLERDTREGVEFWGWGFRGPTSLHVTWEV
GcoA-F169A, sequence (P0DPQ7 whole entry F169A): as the sequence (P0DPQ7 whole entry F169L) above, with L169A counted along it

Row | SMILES | Coupling efficiency (GcoA variant F169L) [%] | % H2O2 produced (GcoA-F169A; 100 µM substrate + 100 µM NADH) [%] | % H2O2 produced (GcoA-F169A; 100 µM substrate + 200 µM NADH) [%]
1 | COc1ccccc1O [guaiacol, 2-methoxyphenol] | 73 ± 3 | 3.7 ± 0.6 | 
2 | COc1cccc(OC)c1O [syringol, 2,6-dimethoxyphenol] | 7.8 ± 2 | 7.4 ± 0.03 | 7.9 ± 0.5
3 | COc1cccc(O)c1O [3MC, 3-methoxycatechol] | 5.0 ± 4 | 17 ± 0.2 | 
